Values joined by “and” are separate entries in the source; they are usually repeats but may differ in a detail not shown here. Equal entries are not always repeated. Toxic doses and inconclusive results are not listed. The calls were made as follows: active = survival T/C of 150% or more; inactive = T/C below 125% in these data.
Test system: P388 leukemia ip, CD2F1 mice, survival T/C
Test: NCI In Vivo Anticancer Drug Screen. Data for tumor model P388 Leukemia (intraperitoneal) in CD2F1 (CDF1) mice
Conditions: endpoint: median survival time, higher = longer survival
Method in brief: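 Mice carrying the transplanted tumor received test compound or vehicle. Survival was recorded in each group, and the value is the treated-group measurement divided by that of the vehicle-treated control group.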

[1] = dose: 50.0 mg/kg/injection, schedule: Q01DX009 (ip), vehicle: saline with Tween-80
[2] = dose: 100.0 mg/kg/injection, schedule: Q01DX009 (ip), vehicle: saline with Tween-80
[3] = dose: 200.0 mg/kg/injection, schedule: Q01DX009 (ip), vehicle: saline with Tween-80
[4] = dose: 50.0 mg/kg/injection, schedule: Q01DX005 (ip), vehicle: saline with Tween-80
[5] = dose: 100.0 mg/kg/injection, schedule: Q01DX005 (ip), vehicle: saline with Tween-80
[6] = dose: 200.0 mg/kg/injection, schedule: Q01DX005 (ip), vehicle: saline with Tween-80
[7] = dose: 60.0 mg/kg/injection, schedule: Q01DX005 (ip), vehicle: Klucel (hydroxypropylcellulose) (HPC)
[8] = dose: 120.0 mg/kg/injection, schedule: Q01DX005 (ip), vehicle: Klucel (hydroxypropylcellulose) (HPC)

Measured: T/C

N#CC1OC(COC(=O)c2ccccc2)C(OC(=O)c2ccccc2)C1OC(=O)c1ccccc1 (stereo not drawn)
inactive: dose: 12.5 mg/kg/injection, schedule: Q01DX009 (ip), vehicle: distilled water + Tween-80 90 % of control | dose: 25.0 mg/kg/injection, schedule: Q01DX009 (ip), vehicle: distilled water + Tween-80 89 % of control | dose: 50.0 mg/kg/injection, schedule: Q01DX009 (ip), vehicle: distilled water + Tween-80 88 % of control | [1] 99 % of control | dose: 100.0 mg/kg/injection, schedule: Q01DX009 (ip), vehicle: distilled water + Tween-80 98 % of control | [2] 94 % of control | dose: 200.0 mg/kg/injection, schedule: Q01DX009 (ip), vehicle: distilled water + Tween-80 101 % of control | [3] 94 % of control

CCN(CCC(=O)OC)Cc1ccnc2ccccc12
inactive: dose: 50.0 mg/kg/injection, schedule: Q01DX005 (ip), vehicle: saline 103 % of control | dose: 100.0 mg/kg/injection, schedule: Q01DX005 (ip), vehicle: saline 113 % of control | dose: 200.0 mg/kg/injection, schedule: Q01DX005 (ip), vehicle: saline 106 % of control

CCC1(C)CC(=O)NC(=O)C1
inactive: dose: 2.5 mg/kg/injection, schedule: Q01DX009 (ip), vehicle: saline with Tween-80 95 % of control | dose: 5.0 mg/kg/injection, schedule: Q01DX009 (ip), vehicle: saline with Tween-80 95 % of control | dose: 10.0 mg/kg/injection, schedule: Q01DX009 (ip), vehicle: saline with Tween-80 86 % of control

O=C(O)C(=O)O.O=C(O)C(=O)O.O=C(O)C(=O)O.[Ir]
inactive: dose: 12.5 mg/kg/injection, schedule: Q04DX003 (ip), vehicle: water 120 % of control | dose: 25.0 mg/kg/injection, schedule: Q04DX003 (ip), vehicle: water 120 % of control | dose: 50.0 mg/kg/injection, schedule: Q04DX003 (ip), vehicle: water 93 % of control | dose: 100.0 mg/kg/injection, schedule: Q04DX003 (ip), vehicle: water 98 % of control

O=C1C=CC(=O)C(C2OC(=O)C(Cl)=C2Cl)=C1 (stereo not drawn)
inactive: [4] 110 % of control | [5] 104 % of control

COc1ccc2c(c1)CSC(c1ccccc1)C2O (stereo not drawn)
inactive: [1] 98 % of control | [2] 93 % of control | [3] 99 % of control

COc1ccc(N=C(c2ccccc2)C2C(=O)c3ccccc3C2=O)cc1
inactive: [4] 103 % of control | [5] 108 % of control | [6] 112 % of control

CCCCCCCCCC(O)C(O)C1CCC(C2CCC(C(O)CCCCCCCCCCCCC3=CC(C)OC3=O)O2)O1 (stereo not drawn)
inactive: dose: 0.35 mg/kg/injection, schedule: Q01DX005 (ip), vehicle: Klucel (hydroxypropylcellulose) (HPC) 103 % of control and 97 % of control | dose: 0.7 mg/kg/injection, schedule: Q01DX005 (ip), vehicle: Klucel (hydroxypropylcellulose) (HPC) 100 % of control and 99 % of control | dose: 1.4 mg/kg/injection, schedule: Q01DX005 (ip), vehicle: Klucel (hydroxypropylcellulose) (HPC) 112 % of control and 100 % of control | dose: 2.8 mg/kg/injection, schedule: Q01DX005 (ip), vehicle: Klucel (hydroxypropylcellulose) (HPC) 106 % of control and 113 % of control

C/C(=C\CC1C(=O)N(c2ccccc2)N(c2ccccc2)C1=O)CO
inactive: [7] 100 % of control | [8] 100 % of control | dose: 240.0 mg/kg/injection, schedule: Q01DX005 (ip), vehicle: Klucel (hydroxypropylcellulose) (HPC) 91 % of control

CCC(c1ccc(O)cc1)c1cc2c(cc1OCC(=O)OC)OCO2 (stereo not drawn)
inactive: [4] 97 % of control | [5] 93 % of control | [6] 88 % of control

CNC(=O)Nc1nnnc2ccccc12
inactive: dose: 25.0 mg/kg/injection, schedule: Q04DX003 (ip), vehicle: saline with Tween-80 90 % of control | dose: 50.0 mg/kg/injection, schedule: Q04DX003 (ip), vehicle: saline with Tween-80 100 % of control | dose: 100.0 mg/kg/injection, schedule: Q04DX003 (ip), vehicle: saline with Tween-80 100 % of control

Cc1ccc2c(c1)sc1n[nH]c(=S)n12
inactive: dose: 50.0 mg/kg/injection, schedule: Q01DX009 (ip), vehicle: Klucel (hydroxypropylcellulose) (HPC) 100 % of control | dose: 100.0 mg/kg/injection, schedule: Q01DX009 (ip), vehicle: Klucel (hydroxypropylcellulose) (HPC) 100 % of control | dose: 200.0 mg/kg/injection, schedule: Q01DX009 (ip), vehicle: Klucel (hydroxypropylcellulose) (HPC) 100 % of control

O=C1CN(CCCN2c3ccccc3Sc3ccc(C(F)(F)F)cc32)CC(=O)N1
inactive: [4] 103 % of control | [5] 100 % of control | [6] 104 % of control

Cc1c(/C=C/C(=O)O)no[n+]1[O-]
inactive: [4] 102 % of control | [5] 98 % of control | [6] 100 % of control

O=C(Nc1ccccc1)Oc1ccc(/C=N/Sc2cccc([N+](=O)[O-])c2)cc1
inactive: [1] 87 % of control | [2] 101 % of control | [3] 106 % of control

COc1cccc2c1C(=O)c1c(OC)c(C)cc(OC)c1C2=O
inactive: dose: 1.56 mg/kg/injection, schedule: Q01DX009 (ip), vehicle: water 100 % of control | dose: 3.13 mg/kg/injection, schedule: Q01DX009 (ip), vehicle: water 107 % of control | dose: 6.25 mg/kg/injection, schedule: Q01DX009 (ip), vehicle: water 110 % of control | dose: 12.5 mg/kg/injection, schedule: Q01DX009 (ip), vehicle: water 110 % of control | dose: 25.0 mg/kg/injection, schedule: Q01DX009 (ip), vehicle: water 110 % of control

COc1cc2c(c(OC)c1OC)-c1[nH]ncc1CC2
inactive: dose: 25.0 mg/kg/injection, schedule: Q04DX003 (ip), vehicle: Klucel (hydroxypropylcellulose) (HPC) 100 % of control | dose: 50.0 mg/kg/injection, schedule: Q04DX003 (ip), vehicle: Klucel (hydroxypropylcellulose) (HPC) 103 % of control | dose: 100.0 mg/kg/injection, schedule: Q04DX003 (ip), vehicle: Klucel (hydroxypropylcellulose) (HPC) 93 % of control and 94 % of control | dose: 400.0 mg/kg/injection, schedule: Q04DX003 (ip), vehicle: Klucel (hydroxypropylcellulose) (HPC) 93 % of control

Cc1ccc(S(=O)(=O)NCC(CNS(=O)(=O)c2ccc(C)cc2)C(C)(C)C)cc1
inactive: dose: 100.0 mg/kg/injection, schedule: Q01DX001 (ip), vehicle: Klucel (hydroxypropylcellulose) (HPC) 93 % of control | dose: 200.0 mg/kg/injection, schedule: Q01DX001 (ip), vehicle: Klucel (hydroxypropylcellulose) (HPC) 93 % of control

CC(=O)Nc1ccc(S(=O)(=O)CC(N)=O)cc1
inactive: dose: 12.5 mg/kg/injection, schedule: Q01DX009 (ip), vehicle: saline 105 % of control | dose: 25.0 mg/kg/injection, schedule: Q01DX009 (ip), vehicle: saline 104 % of control | dose: 50.0 mg/kg/injection, schedule: Q01DX009 (ip), vehicle: saline 107 % of control | dose: 50.0 mg/kg/injection, schedule: Q01DX009 (ip), vehicle: suspension in saline 97 % of control

Cc1ccc2c(N=Nc3ccc(C(=N)N)cc3)ccc(O)c2n1
inactive: dose: 25.0 mg/kg/injection, schedule: Q01DX005 (ip), vehicle: Klucel (hydroxypropylcellulose) (HPC) 104 % of control | dose: 50.0 mg/kg/injection, schedule: Q01DX005 (ip), vehicle: Klucel (hydroxypropylcellulose) (HPC) 113 % of control | dose: 100.0 mg/kg/injection, schedule: Q01DX005 (ip), vehicle: Klucel (hydroxypropylcellulose) (HPC) 111 % of control | dose: 200.0 mg/kg/injection, schedule: Q01DX005 (ip), vehicle: Klucel (hydroxypropylcellulose) (HPC) 105 % of control

COC1=C(C#N)C(c2ccccc2)CC(N)=N1 (stereo not drawn)
inactive: [7] 112 % of control | [8] 94 % of control

CCOC(=O)CC(=O)N(CC)CC
inactive: [2] 104 % of control | [3] 100 % of control | dose: 400.0 mg/kg/injection, schedule: Q01DX009 (ip), vehicle: saline with Tween-80 95 % of control

O=[N+]([O-])c1c(Br)sc(Br)c1[N+](=O)[O-]
inactive: dose: 12.5 mg/kg/injection, schedule: Q01DX009 (ip), vehicle: saline with Tween-80 104 % of control | dose: 25.0 mg/kg/injection, schedule: Q01DX009 (ip), vehicle: saline with Tween-80 95 % of control | [1] 95 % of control
